Reference: paper PMC12336832, “A key loop in the catalytic pocket of the PL17 family of alginate lyases determines minimal substrate recognition” (The Journal of Biological Chemistry, 2025)

Tests used:
VaAly17A = target: T1, VaAly17A (Vibrio alginolyticus, UniProt A0A2I3CRJ2); assay: TBA assay, TLC, gel filtration HPLC, ESI-MS; format: biochemical; conditions: pH 8.0, 200 mM NaCl, 30 °C, 0.3% substrate; exolytic, from the nonreducing end
T1 construct: gene N646_4459; N-terminal His tag, E. coli BL21(DE3), plasmid pZLZ04; no signal peptide predicted; theoretical 81,525 Da
T1 sequence (A0A2I3CRJ2 1-721): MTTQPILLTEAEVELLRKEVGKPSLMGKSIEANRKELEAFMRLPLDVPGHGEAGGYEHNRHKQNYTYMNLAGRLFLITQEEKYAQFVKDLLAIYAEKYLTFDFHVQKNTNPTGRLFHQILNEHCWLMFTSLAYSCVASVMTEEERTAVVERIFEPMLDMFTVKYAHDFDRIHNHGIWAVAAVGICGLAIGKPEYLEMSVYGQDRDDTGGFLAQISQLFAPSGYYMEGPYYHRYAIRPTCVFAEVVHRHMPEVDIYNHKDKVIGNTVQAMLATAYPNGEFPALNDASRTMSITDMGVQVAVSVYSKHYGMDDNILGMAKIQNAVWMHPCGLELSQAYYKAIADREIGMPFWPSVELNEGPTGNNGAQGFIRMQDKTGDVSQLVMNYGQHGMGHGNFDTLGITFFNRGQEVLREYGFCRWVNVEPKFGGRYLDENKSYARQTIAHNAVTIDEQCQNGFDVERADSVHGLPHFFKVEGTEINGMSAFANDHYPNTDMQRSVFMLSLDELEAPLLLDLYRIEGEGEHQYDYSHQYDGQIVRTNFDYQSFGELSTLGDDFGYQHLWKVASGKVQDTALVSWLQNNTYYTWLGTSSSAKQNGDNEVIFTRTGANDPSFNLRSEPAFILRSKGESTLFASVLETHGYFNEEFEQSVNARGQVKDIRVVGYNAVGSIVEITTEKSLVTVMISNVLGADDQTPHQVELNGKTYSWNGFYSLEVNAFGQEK

VaAly17B = target: T2, VaAly17B (Vibrio alginolyticus, UniProt A0A2I3CRW2); assay: TBA assay, TLC, gel filtration HPLC, ESI-MS; format: biochemical; conditions: pH 8.0, 200 mM NaCl, 20 °C, 0.3% substrate
T2 construct: gene N646_4460; N-terminal His tag, E. coli BL21(DE3), plasmid pZLZ05; no signal peptide predicted; theoretical 81,023 Da
T2 sequence (A0A2I3CRW2 1-721): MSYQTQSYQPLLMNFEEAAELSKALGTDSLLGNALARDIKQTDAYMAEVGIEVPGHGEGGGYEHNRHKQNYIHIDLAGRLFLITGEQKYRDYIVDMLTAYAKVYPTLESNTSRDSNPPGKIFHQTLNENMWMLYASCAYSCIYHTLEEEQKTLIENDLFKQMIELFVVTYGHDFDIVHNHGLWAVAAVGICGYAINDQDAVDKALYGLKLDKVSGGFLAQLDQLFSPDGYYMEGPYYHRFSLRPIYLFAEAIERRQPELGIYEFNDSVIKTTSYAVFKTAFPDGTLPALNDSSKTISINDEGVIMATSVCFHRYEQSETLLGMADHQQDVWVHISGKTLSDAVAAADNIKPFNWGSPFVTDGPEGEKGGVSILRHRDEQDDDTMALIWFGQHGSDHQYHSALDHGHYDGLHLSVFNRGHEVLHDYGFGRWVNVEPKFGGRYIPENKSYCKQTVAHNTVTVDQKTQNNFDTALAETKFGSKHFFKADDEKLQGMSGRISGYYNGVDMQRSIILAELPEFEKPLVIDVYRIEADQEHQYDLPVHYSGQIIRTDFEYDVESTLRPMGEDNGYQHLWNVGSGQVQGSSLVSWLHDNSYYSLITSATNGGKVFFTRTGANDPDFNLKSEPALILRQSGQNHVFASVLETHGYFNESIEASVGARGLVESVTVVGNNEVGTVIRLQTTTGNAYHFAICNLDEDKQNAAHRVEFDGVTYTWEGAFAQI

Row | SMILES | specific activity (VaAly17A) | specific activity (VaAly17B)
1 | O=C(O)[C@H]1O[C@@H](O[C@H]2[C@H](O)[C@H](O)[C@H](O[C@H]3[C@H](O)[C@H](O)C(O)O[C@@H]3C(=O)O)O[C@@H]2C(=O)O)[C@@H](O)[C@@H](O)[C@@H]1O (some centres unmarked) [M3, Trimer-M3] | unsaturated M2 was produced when M3 was used as the substrate | –
2 | O=C(O)[C@H]1O[C@@H](O[C@H]2[C@H](O)[C@H](O)C(O)O[C@@H]2C(=O)O)[C@@H](O)[C@@H](O)[C@@H]1O (some centres unmarked) [M2, Dimer-M2] | – | VaAly17B could degrade M2 into monomers
